Measurements from PMC9783573, “Introduction of a SiFA Moiety into the D-Glutamate Chain of DOTA-PP-F11N Results in Radiohybrid-Based CCK-2R-Targeted Compounds with Improved Pharmacokinetics In Vivo” (Pharmaceuticals, 2022).
Where two headings read alike, the source gives them in different places. Non-standard residues stand in square brackets, D forms with d. Residues, ends and D or L forms follow the SMILES beside them. *: point of attachment. X1 = O=C(O)CN1CCN(CC(=O)O)CCN([C@H](CCC(=O)*)C(=O)O)CCN(CC(=O)O)CC1; Benzoyl(4-SiFtBu2) = CC(C)(C)[Si](F)(c1ccc(C(=O)*)cc1)C(C)(C)C; Nle = CCCC[C@H](N)C(=O)O; dDap = NC[C@@H](N)C(=O)O

Legend:
[1] = Lipophilicity, n-octanol/PBS (pH 7.4) distribution coefficient; format: physicochemical
Experimental: Lipophilicity (depicted as octanol-phosphate-buffered saline solution (PBS, pH = 7.4) distribution coefficient, logD7.4) was determined via dissolving the ^177Lu-labelled peptide (approx. 1 MBq) in a mixture (1/1, v/v) of n-octanol and PBS. The suspension was vortexed in a reaction vial (1.5 mL) for 3 min at RT and the vial was centrifuged at 9000× […] for 5 min (Biofuge 15, Heraus Sepatech GmbH, Osterode, Germany). 200 μL aliquots of both layers were measured separately in a γ-counter (Perkin Elmer, Waltham, MA, USA). The experiment was repeated at least five times.

[2] = molecular target: T1, CCK-2R (Rattus norvegicus, UniProt P30553); test: Competitive binding (IC50) on AR42J cells with [177Lu]Lu-DOTA-PP-F11N as radiolabelled reference; conditions: natLu-labelled peptide, AR42J cells 2.0 × 10^5/well, 3 h, 37 °C, [177Lu]Lu-DOTA-PP-F11N 0.3 pmol/well
T1 construct: CCK-2R expressing rat pancreatic cancer cells AR42J (CLS GmbH, Eppelheim,; host or cells: AR42J rat pancreatic cancer cells
T1 sequence (P30553 1-452): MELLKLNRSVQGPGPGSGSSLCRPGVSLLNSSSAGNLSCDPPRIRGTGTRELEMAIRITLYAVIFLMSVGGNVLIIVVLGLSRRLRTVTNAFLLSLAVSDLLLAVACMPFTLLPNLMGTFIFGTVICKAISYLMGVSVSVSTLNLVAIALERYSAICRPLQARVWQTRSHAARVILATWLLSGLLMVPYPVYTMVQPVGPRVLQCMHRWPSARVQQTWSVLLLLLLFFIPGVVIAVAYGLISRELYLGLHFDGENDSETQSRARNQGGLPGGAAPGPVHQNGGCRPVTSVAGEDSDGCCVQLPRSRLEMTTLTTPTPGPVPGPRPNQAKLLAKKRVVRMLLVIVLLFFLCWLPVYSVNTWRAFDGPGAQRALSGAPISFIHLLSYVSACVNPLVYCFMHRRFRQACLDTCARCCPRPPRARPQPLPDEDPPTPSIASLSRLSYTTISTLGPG
Experimental: Detailed description of all cell-based experiments is provided in the Supplementary Materials. In brief, competitive binding studies were conducted on AR42J cells (2.0 × 10^5 cells per 1 mL/well) via incubation at 37 °C for 3 h using [^177Lu]Lu-DOTA-PP-F11N (0.3 pmol) as a radiolabelled reference (n = 3).
Cell Culture. CCK-2R expressing rat pancreatic cancer cells AR42J (CLS GmbH, Eppelheim, Germany) were cultivated in monolayers in CELLSTAR ® cell culture flasks acquired from Greiner Bio-One GmbH (Frickenhausen, Germany) at 37 °C in a humidified atmosphere (5% CO2) using a HERAcell 150i-Incubator (Thermo Fisher Scientific Inc., Waltham, United States). As nutrient medium RPMI 1640 medium, supplemented with 5 mM L-Gln 5 mL non-essential amino acids (100×) and 10% FCS, was used. Furthermore, a Dulbecco’s PBS solution with 0.1% EDTA (v/v) was applied to detach the cells for cell passaging. The detached cells were counted using a Neubauer hemocytometer ( Paul Marienfeld, Lauda-Königshofen, Germany). In addition, all operations under sterile conditions were accomplished using a MSC-Advantage safety workbench (Thermo Fisher Scientific Inc., Waltham, United States).
Determination of IC50. AR42J cells (2.0 × 10^5 cells/well) were seeded into 24-well plates 24 ± 2 h prior to testing, using 1 mL of nutrient medium (RPMI 1640, 5 mM L-Gln, 5 mL non-essential amino acids (100×), 10% FCS). Cells were incubated at 37 °C in a humidified atmosphere (5% CO2).
After removal of the medium, each well was washed with 500 μL PBS. For the cell-based assay, 200 μL of nutrient medium (+5% BSA), [177Lu]Lu-DOTA-PP-F11N (25 μL, 0.3 pmol) as a radiolabeled reference and 25 μL of the peptide of interest in increasing concentrations (10−10 to 10−4 M) in triplicate were added to the cells. Thereafter, the assay was incubated for 3 h at 37 °C and thereafter, the supernatant was collected. The cells were washed with 300 μL PBS and the collected supernatant fractions were unified.
After lysis of the cells with NaOH (300 μL, 1 N) for 15 min, the respective wells were washed with NaOH (300 μL, 1 N) and both fractions were unified. The radioactivity of both, the supernatant and the lysed fractions was quantified using a γ-counter (PerkinElmer Inc., Waltham, United States ). The obtained data were evaluated via the GraphPad PRISM software ( GraphPad Software Inc., La Jolla, United States), which calculates the halfmaximal inhibitory concentration ( IC50) of the peptides. […]

[3] = 177Lu-labelled peptide, n-octanol/PBS pH 7.4, read-out: logD7.4

Molecule CCCC[C@H](NC(=O)[C@H](Cc1c[nH]c2ccccc12)NC(=O)CNC(=O)[C@H](Cc1ccc(O)cc1)NC(=O)[C@H](C)NC(=O)[C@@H](CCC(=O)O)NC(=O)[C@@H](CCC(=O)O)NC(=O)[C@@H](CCC(=O)O)NC(=O)[C@@H](CCC(=O)O)NC(=O)[C@@H](CCC(=O)O)NC(=O)[C@@H](CCC(=O)O)NC(=O)[C@@H](CCC(=O)O)NC(=O)[C@@H](CCC(=O)O)NC(=O)[C@@H](CNC(=O)c1ccc([Si](F)(C(C)(C)C)C(C)(C)C)cc1)NC(=O)CC[C@H](C(=O)O)N1CCN(CC(=O)O)CCN(CC(=O)O)CCN(CC(=O)O)CC1)C(=O)N[C@@H](CC(=O)O)C(=O)N[C@@H](Cc1ccccc1)C(N)=O [[nat/177Lu]Lu-(R)-DOTAGA-rhCCK-9, metal not drawn] (X1-[dDap](Benzoyl(4-SiFtBu2))[dE][dE][dE][dE][dE][dE][dE][dE]AYGW[Nle]DF-NH2) has a logD [1, 3] of -2.84 ± 0.04 and an IC50 [2] of 55.3 ± 7.8 nM.

In the case of CSCC[C@H](NC(=O)[C@H](Cc1c[nH]c2ccccc12)NC(=O)CNC(=O)[C@H](Cc1ccc(O)cc1)NC(=O)[C@H](C)NC(=O)[C@@H](CCC(=O)O)NC(=O)[C@@H](CCC(=O)O)NC(=O)[C@@H](CCC(=O)O)NC(=O)[C@@H](CCC(=O)O)NC(=O)[C@@H](CCC(=O)O)NC(=O)[C@@H](CCC(=O)O)NC(=O)CN1CCN(CC(=O)O)CCN(CC(=O)O)CCN(CC(=O)O)CC1)C(=O)N[C@@H](CC(=O)O)C(=O)N[C@@H](Cc1ccccc1)C(N)=O [[nat/177Lu]Lu-CP04, metal not drawn, reference compound], the logD ([1]; pH 7.4) is reported as -3.8 ± 0.1 and the IC50 ([2]; listed as [^natLu]Lu-CP04, read-out: IC50) is reported as 11 to 13 nM.

CCCC[C@H](NC(=O)[C@H](Cc1c[nH]c2ccccc12)NC(=O)CNC(=O)[C@H](Cc1ccc(O)cc1)NC(=O)[C@H](C)NC(=O)[C@@H](CCC(=O)O)NC(=O)[C@@H](CCC(=O)O)NC(=O)[C@@H](CCC(=O)O)NC(=O)[C@@H](CCC(=O)O)NC(=O)[C@@H](CCC(=O)O)NC(=O)[C@@H](CCC(=O)O)NC(=O)CN1CCN(CC(=O)O)CCN(CC(=O)O)CCN(CC(=O)O)CC1)C(=O)N[C@@H](CC(=O)O)C(=O)N[C@@H](Cc1ccccc1)C(N)=O [[nat/177Lu]Lu-DOTA-PP-F11N, metal not drawn, reference compound] gave a logD [1, 3] of -4.75 ± 0.07 and an IC50 ([2]; read-out: IC50) of 11 to 13 nM.

For CCCC[C@H](NC(=O)[C@H](Cc1c[nH]c2ccccc12)NC(=O)CNC(=O)[C@H](Cc1ccc(O)cc1)NC(=O)[C@H](C)NC(=O)CC[C@@H](NC(=O)CC[C@@H](NC(=O)CC[C@@H](NC(=O)CC[C@@H](NC(=O)CC[C@@H](NC(=O)CC[C@@H](NC(=O)[C@@H](CNC(=O)c1ccc([Si](F)(C(C)(C)C)C(C)(C)C)cc1)NC(=O)CC[C@H](C(=O)O)N1CCN(CC(=O)O)CCN(CC(=O)O)CCN(CC(=O)O)CC1)C(=O)O)C(=O)O)C(=O)O)C(=O)O)C(=O)O)C(=O)O)C(=O)N[C@@H](CC(=O)O)C(=O)N[C@@H](Cc1ccccc1)C(N)=O [[nat/177Lu]Lu-(R)-DOTAGA-rhCCK-16, metal not drawn], the logD [1, 3] was -2.54 ± 0.05 and the IC50 [2] was 20.4 ± 2.7 nM.
